Measurements from ChEMBL document CHEMBL3044716, “Discovery of imidacloprid and further developments from strategic molecular designs” (J Agric Food Chem, 2011).
Calls of active or inactive are those of the source. The rule behind the calls is not given here.

What was measured:
Nephotettix cincticeps [1] = assay: Insecticidal activity against Nephotettix cincticeps (green rice leafhopper) assessed as mortality measured after 4 days; type: functional
[2] = Photolysis of the compound assessed as half life at 30 degC by 250 W sun lamp; type: physicochemical
Nephotettix cincticeps [3] = assay: Insecticidal activity against Nephotettix cincticeps (green rice leafhopper) in rice plant assessed as mortality at 100 mg/L insects released after 14 days of compound treatment measured after 48 hr of insect release; type: functional
Nephotettix cincticeps [4] = assay: Insecticidal activity against Nephotettix cincticeps (green rice leafhopper) in rice plant assessed as mortality at 100 mg/L insects released after 14 days of compound treatment measured after 72 hr of insect release (reference value: 0%); type: functional
Nephotettix cincticeps [5] = assay: Insecticidal activity against Nephotettix cincticeps (green rice leafhopper) in rice plant assessed as mortality at 100 mg/L insects released after 3 days of compound treatment measured after 48 hr of insect release; type: functional
Nephotettix cincticeps [6] = assay: Insecticidal activity against Nephotettix cincticeps (green rice leafhopper) in rice plant assessed as mortality at 100 mg/L insects released after 14 days of compound treatment measured after 24 hr of insect release; type: functional
Nephotettix cincticeps [7] = assay: Insecticidal activity against Nephotettix cincticeps (green rice leafhopper) in rice plant assessed as mortality at 100 mg/L insects released after 3 days of compound treatment measured after 24 hr of insect release; type: functional
Nephotettix cincticeps [8] = assay: Insecticidal activity against Nephotettix cincticeps (green rice leafhopper) in rice plant assessed as mortality at 100 mg/L insects released after 7 days of compound treatment measured after 72 hr of insect release (reference value: 0%); type: functional
Nephotettix cincticeps [9] = assay: Insecticidal activity against Nephotettix cincticeps (green rice leafhopper) in rice plant assessed as mortality at 100 mg/L insects released after 3 days of compound treatment measured after 72 hr of insect release (reference value: 0%); type: functional
Nephotettix cincticeps [10] = assay: Insecticidal activity against Nephotettix cincticeps (green rice leafhopper) in rice plant assessed as mortality at 100 mg/L insects released after 7 days of compound treatment measured after 48 hr of insect release; type: functional
Nephotettix cincticeps [11] = assay: Insecticidal activity against Nephotettix cincticeps (green rice leafhopper) in rice plant assessed as mortality at 100 mg/L insects released after 7 days of compound treatment measured after 24 hr of insect release; type: functional
Spodoptera litura = assay: Insecticidal activity against Spodoptera litura (tobacco cutworm) assessed as mortality measured as LC90; type: functional
Myzus persicae [12] = assay: Insecticidal activity against Myzus persicae (green peach aphid) in cabbage plant assessed as mortality at 100 mg/L insects released after 7 days of compound treatment measured after 72 hr of insect release (reference value: 10 +/- 3%); type: functional
Myzus persicae [13] = assay: Insecticidal activity against Myzus persicae (green peach aphid) in cabbage plant assessed as mortality at 100 mg/L insects released after 3 days of compound treatment measured after 72 hr of insect release (reference value: 14 +/- 4%); type: functional
Myzus persicae [14] = assay: Insecticidal activity against Myzus persicae (green peach aphid) in cabbage plant assessed as mortality at 100 mg/L insects released after 14 days of compound treatment measured after 72 hr of insect release (reference value: 0%); type: functional

Row | Structure (SMILES) | LC90 (Nephotettix cincticeps [1]) | further results
1 | O=[N+]([O-])/C=C1\NCCN1Cc1ccccn1 | 200 ppm | 
2 | COc1ccc(CN2CCN/C2=C\[N+](=O)[O-])cn1 | 200 ppm | 
3 | CC(=O)Nc1ccc(CN2CCN/C2=C\[N+](=O)[O-])cn1 | 1000 ppm | 
4 | O=[N+]([O-])/C=C1\NCCN1Cc1cccs1 | 200 ppm | 
5 | O=[N+]([O-])/C=C1\NCCN1Cc1cnccn1 | 8 ppm | 
6 | O=[N+]([O-])/C=C1\NCCN1Cc1ccccc1 | 200 ppm | 
7 | O=[N+]([O-])/C=C1\NCCN1Cc1cncnc1 | 8 ppm | 
8 | Cc1ccc(CN2CCN/C2=C\[N+](=O)[O-])cn1 | 1.6 ppm | 
9 | O=[N+]([O-])/C=C1\NCCN1Cc1ccccc1Cl | inactive | 
10 | O=[N+]([O-])/C=C1\NCCN1Cc1ccc(F)nc1 | 0.32 ppm | 
11 | O=[N+]([O-])/N=C1\NCCCN1Cc1ccc(Cl)nc1 |  | half-life [2]: 3.5 h
12 | O=[N+]([O-])/C=C1\NCCN1CCc1ccccc1 | inactive | 
13 | N#C/N=C1\NCCN1Cc1ccc(Cl)nc1 | 0.32 ppm | half-life [2]: > 24 h
14 | CCCN1CCN(Cc2ccc(Cl)nc2)/C1=N/[N+](=O)[O-] | 0.32 ppm | 
15 | O=[N+]([O-])/C=C1\NCCN1Cc1ccc[nH]1 | 200 ppm | 
16 | O=[N+]([O-])/C=C1\NCCCCN1Cc1ccccc1 | 1000 ppm | 
17 | Cc1ccc(CN2CCN/C2=C\[N+](=O)[O-])cc1 | 200 ppm | 
18 | CCCCN1CCN(Cc2ccc(Cl)nc2)/C1=N/[N+](=O)[O-] | 1.6 ppm | 
19 | CS(=O)(=O)/N=C1\NCCN1Cc1ccc(Cl)nc1 | 40 ppm | 
20 | N=C1NCCN1Cc1ccc(Cl)nc1 [DESNITROIMIDACLOPRID] | 1000 ppm | 
21 | CSc1ccc(CN2CCN/C2=C\[N+](=O)[O-])cn1 | 1000 ppm | 
22 | O=[N+]([O-])/C=C1\SCCN1Cc1ccc(Cl)nc1 |  | half-life [2]: < 0.5 h
23 | O=[N+]([O-])/C=C1\NCCCCCN1Cc1ccccc1 | 1000 ppm | 

Row | Structure (SMILES) | LC90 (Nephotettix cincticeps [1]) | further results
24 | O=[N+]([O-])/N=C1\NCCN1Cc1ccc(Cl)nc1 [IMIDACLOPRID] | <0.32 ppm | mortality (Nephotettix cincticeps [3]): 100%; mortality (Nephotettix cincticeps [4]): 100%; mortality (Nephotettix cincticeps [5]): 80%; mortality (Nephotettix cincticeps [6]): 95%; mortality (Nephotettix cincticeps [7]): 47%; mortality (Nephotettix cincticeps [8]): 100%; mortality (Nephotettix cincticeps [9]): 100%; mortality (Nephotettix cincticeps [10]): 100%; mortality (Nephotettix cincticeps [11]): 89%; half-life [2]: 3 h
25 | O=[N+]([O-])/C=C1\NCCN1c1ccccc1 | 1000 ppm | 
26 | CCN1CCN(Cc2ccc(Cl)nc2)/C1=N/[N+](=O)[O-] | 8 ppm | 
27 | O=[N+]([O-])/C=C1\NCCN1C1CCCCC1 | 1000 ppm | 
28 | O=[N+]([O-])/C=C1\NCCN1Cc1ccn[nH]1 | 200 ppm | 
29 | COc1ccc(CN2CCN/C2=C\[N+](=O)[O-])cc1 | 200 ppm | 
30 | CCCCCCN1CCN(Cc2ccc(Cl)nc2)/C1=N/[N+](=O)[O-] | 40 ppm | 
31 | O=[N+]([O-])/C=C1\NCCN1Cc1ccc(C(F)(F)F)nc1 | 8 ppm | 
32 | O=[N+]([O-])/C=C1\NCCN1CC1CCCO1 (centres undefined) | 500 ppm | 
33 | O=[N+]([O-])/C=C1\NCCN1Cc1cccc(Cl)c1 | 200 ppm | 
34 | O=[N+]([O-])/C=C1\NCCN1Cc1cnc2ccccc2c1 | inactive | 
35 | O=[N+]([O-])C=C1NCCCS1 | 40 ppm | LC90 (Spodoptera litura): <40 ppm; half-life [2]: 0.5 h
36 | O=[N+]([O-])/C=C1\NCCCN1Cc1ccc(Cl)nc1 |  | half-life [2]: 2 h
37 | O=[N+]([O-])/C=C1\NCCN1Cc1ccco1 | 200 ppm | 
38 | O=[N+]([O-])/N=C1/N(CCCCCCCN2CCN(Cc3ccc(Cl)nc3)/C2=N/[N+](=O)[O-])CCN1Cc1ccc(Cl)nc1 [Heptamethylene 1,7-bis-imadacloprid] |  | mortality (Nephotettix cincticeps [3]): 100%; mortality (Nephotettix cincticeps [4]): 100%; mortality (Nephotettix cincticeps [5]): 40%; mortality (Nephotettix cincticeps [6]): 100%; mortality (Myzus persicae [12]): 100%; mortality (Myzus persicae [13]): 100%; mortality (Nephotettix cincticeps [7]): 13%; mortality (Nephotettix cincticeps [8]): 100%; mortality (Nephotettix cincticeps [9]): 100%; mortality (Nephotettix cincticeps [10]): 100%; mortality (Nephotettix cincticeps [11]): 83%; mortality (Myzus persicae [14]): 100%
39 | C=CCN1CCN(Cc2ccc(Cl)nc2)/C1=N/[N+](=O)[O-] | 0.32 ppm | 
40 | O=[N+]([O-])/C=C1\NCCN1Cc1ccsc1 | 200 ppm | 
41 | N#C/C=C1\NCCN1Cc1ccc(Cl)nc1 | inactive | 
42 | O=[N+]([O-])/C=C1\NCCN1Cc1ccncn1 | 40 ppm | 
43 | CC(C)N1CCN(Cc2ccc(Cl)nc2)/C1=N/[N+](=O)[O-] | 40 ppm | 
44 | O=[N+]([O-])/N=C1/N(CCCCCCN2CCN(Cc3ccc(Cl)nc3)/C2=N/[N+](=O)[O-])CCN1Cc1ccc(Cl)nc1 [Hexamethylene 1,6-bis-imadacloprid] |  | mortality (Nephotettix cincticeps [3]): 100%; mortality (Nephotettix cincticeps [4]): 100%; mortality (Nephotettix cincticeps [5]): 78%; mortality (Nephotettix cincticeps [6]): 60%; mortality (Myzus persicae [12]): 55%; mortality (Myzus persicae [13]): 83%; mortality (Nephotettix cincticeps [7]): 56%; mortality (Nephotettix cincticeps [8]): 94%; mortality (Nephotettix cincticeps [9]): 89%; mortality (Nephotettix cincticeps [10]): 94%; mortality (Nephotettix cincticeps [11]): 59%; mortality (Myzus persicae [14]): 50%
45 | O=[N+]([O-])/C=C1\NCCN1Cc1cncs1 | 8 ppm | 
46 | CN1CCN/C1=C\[N+](=O)[O-] | 1000 ppm | 

Row | Structure (SMILES) | LC90 (Nephotettix cincticeps [1]) | further results
47 | O=[N+]([O-])/C=C1\NCCN1Cc1cnco1 | 40 ppm | 
48 | N#CC(C#N)=C1NCCN1Cc1ccc(Cl)nc1 | 40 ppm | 
49 | O=[N+]([O-])/C=C1\NCCCN1Cc1ccccc1 | >200 ppm | 
50 | O=[N+]([O-])/C=C1\NCCN1Cc1ccc([N+](=O)[O-])cc1 | 200 ppm | 
51 | N#Cc1ccc(CN2CCN/C2=C\[N+](=O)[O-])cn1 | 200 ppm | 
52 | O=[N+]([O-])/C=C1\NCCN1Cc1cncc(Cl)c1 | 40 ppm | 
53 | O=[N+]([O-])/C=C1\NCCN1Cc1ccncc1 | 8 ppm | 
54 | CCOC(=O)/N=C1\NCCN1Cc1ccc(Cl)nc1 | 40 ppm | 
55 | N#Cc1cccc(CN2CCN/C2=C\[N+](=O)[O-])c1 | 40 ppm | 
56 | O=[N+]([O-])/C=C1\NCCN1Cc1ccc(Cl)nc1 | 0.32 ppm | half-life [2]: 1 h
57 | O=[N+]([O-])/C=C1\NCCN1Cc1ccc(Br)nc1 | 1.6 ppm | 
58 | O=C1NCCN1Cc1ccc(Cl)nc1 | 1000 ppm | 
59 | O=[N+]([O-])C=C1NCCN1 [2-(NITROMETHYLENE)IMIDAZOLIDINE] | 1000 ppm | 
60 | CCOC(=O)/C=C1\NCCN1Cc1ccc(Cl)nc1 | inactive | 
61 | O=[N+]([O-])/C=C1\NCCN1Cc1ccc(Cl)cc1 | 40 ppm | LC90 (Spodoptera litura): 500 ppm
62 | CN/C(=C\[N+](=O)[O-])NCc1ccccc1 | inactive | 
63 | CCCCCN1CCN(Cc2ccc(Cl)nc2)/C1=N/[N+](=O)[O-] | 20 ppm | 
64 | O=[N+]([O-])N=C1N(Cc2ccc(Cl)nc2)CCN1Cc1ccc(Cl)nc1 | 1.6 ppm | 
65 | O=[N+]([O-])/C=C1\NCCN1Cc1cccnc1 | 8 ppm | 
66 | CN1CCN(Cc2ccc(Cl)nc2)/C1=N/[N+](=O)[O-] | 1.6 ppm | 
67 | O=[N+]([O-])/C=C1\NCCN1Cc1cccnc1Cl | 200 ppm | 
